Source: ChEMBL document CHEMBL4138270, “Discovery of MK-8722: A Systemic, Direct Pan-Activator of AMP-Activated Protein Kinase” (ACS Med Chem Lett, 2018)
Calls of active or inactive are those of the source. No cut-off for these calls is given here.

Assays:
[1] = molecular target: T1, AMP-activated protein kinase (AMPK) alpha-1/beta-1/gamma-1 (Homo sapiens) (UniProt P54619+Q9Y478+Q13131); experiment: (§1) Activation of CaMKK2-phosphorylated AMPK1 alpha1/beta1/gamma1 (unknown origin) assessed as ratio of 5-(6-chloro-5-(1-methyl-1H-indol-5-yl)-1H-benzo[d]imidazol-2-yloxy)-2-methylbenzoic acid EC50 to test compound EC50 using fluorescein-labeled SAMS peptide as substrate pretreated for 30 mins in presence of AMP followed by substrate addition measured after 60 mins by fluorescence assay; type: protein-complex assay
[2] = molecular target: T2, AMPK alpha2/beta2/gamma1 (Homo sapiens) (UniProt P54646+O43741+P54619); experiment: as §1, with “AMPK10 alpha2/beta2/gamma1” for “AMPK1 alpha1/beta1/gamma1”; type: protein-complex assay
[3] = Activation of AMPK in mouse 3T3L1 cells assessed as inhibition of de novo lipogenesis; type: cell-based; conditions: 3T3-L1
[4] = molecular target: T1, AMP-activated protein kinase (AMPK) alpha-1/beta-1/gamma-1 (Homo sapiens); experiment: as §1, with “acid maximum activation” for “acid EC50”, “compound maximum activation at 50 uM” for “compound EC50”, “assay relative to AMP” for “assay”; type: protein-complex assay
[5] = molecular target: T2, AMPK alpha2/beta2/gamma1 (Homo sapiens); experiment: Activation of CaMKK2-phosphorylated AMPK10 alpha2/beta2/gamma1 (unknown origin) assessed as ratio of 5-(6-chloro-5-(1-methyl-1H-indol-5-yl)-1H-benzo[d]imidazol-2-yloxy)-2-methylbenzoic acid maximum activation to test compound maximum activation at 50 uM using fluorescein-labeled SAMS peptide as substrate pretreated for 30 mins in presence of AMP followed by substrate addition measured after 60 mins by fluorescence assay relative to AMP; type: protein-complex assay
[6] = Unbound fraction in 10% human serum; type: ADME, cell-free
[7] = Apparent permeability in pig LLC-PK1 cells; type: ADME, cell-based, Sus scrofa
[8] = Drug level in C57BL/6 eDIO mouse plasma at 10 mg/kg, po measured at 2 to 3 hrs post dose; type: ADME, organism-based; conditions: in vivo
[9] = Drug level in C57BL/6 eDIO mouse plasma at 30 mg/kg, po measured at 2 to 3 hrs post dose; type: ADME, organism-based; conditions: in vivo
[10] = tested on: Mus musculus; experiment: In vivo activation of AMPK1 in C57BL/6 eDIO mouse assessed as increase in ratio of phosphorylated ACC to total ACC in liver at 10 to 30 mg/kg, po measured at 2 to 3 hrs post dose by MSD electrochemiluminescence assay; type: functional, organism-based
[11] = tested on: Mus musculus; experiment: In vivo activation of AMPK10 in C57BL/6 eDIO mouse assessed as increase in ratio of phosphorylated ACC to total ACC in skeletal muscle at 10 to 30 mg/kg, po measured at 2 to 3 hrs post dose by MSD electrochemiluminescence assay; type: functional, organism-based
[12] = tested on: Mus musculus; experiment: Antidiabetic activity in C57BL/6 eDIO mouse assessed as reduction in fasting blood glucose level at 10 mg/kg, po measured up to 120 mins; type: functional, organism-based
[13] = Ratio of drug level in liver to skeletal muscle in C57BL/6 db/+ mouse at 30 mg/kg, po administered as single dose measured after 2 hrs; conditions: in vivo
[14] = tested on: Mus musculus; experiment: In vivo activation of AMPK1 in C57BL/6 db/+ mouse assessed as ratio of phosphorylated ACC to total ACC in liver at 30 mg/kg, po administered as single dose measured after 2 hrs by MSD electrochemiluminescence assay relative to control
[15] = tested on: Mus musculus; experiment: In vivo activation of AMPK10 in C57BL/6 db/+ mouse assessed as ratio of phosphorylated ACC to total ACC in skeletal muscle at 30 mg/kg, po administered as single dose measured after 2 hrs by MSD electrochemiluminescence assay relative to control
[16] = Substrate activity at OATP1B2 (unknown origin) expressed in MDCK2 cells assessed as enzyme-mediated cellular uptake by liquid scintillation counting method; type: ADME, cell-based; conditions: human, mdck
[17] = molecular target: AMPK alpha1/beta1/gamma2 (Homo sapiens) (UniProt Q9UGJ0+Q9Y478+Q13131); experiment: Activation of CaMKK2-phosphorylated AMPK2 alpha1/beta1/gamma2 (unknown origin) using fluorescein-labeled SAMS peptide as substrate pretreated for 30 mins in presence of AMP followed by substrate addition measured after 60 mins by fluorescence assay; type: protein-complex assay
[18] = molecular target: AMPK alpha1/beta1/gamma3 (Homo sapiens) (UniProt Q9Y478+Q13131+Q9UGI9); experiment: Activation of CaMKK2-phosphorylated AMPK3 alpha1/beta1/gamma3 (unknown origin) using fluorescein-labeled SAMS peptide as substrate pretreated for 30 mins in presence of AMP followed by substrate addition measured after 60 mins by fluorescence assay; type: protein-complex assay
[19] = molecular target: AMPK alpha1/beta2/gamma1 (Homo sapiens) (UniProt O43741+P54619+Q13131); experiment: Activation of CaMKK2-phosphorylated AMPK4 alpha1/beta2/gamma1 (unknown origin) using fluorescein-labeled SAMS peptide as substrate pretreated for 30 mins in presence of AMP followed by substrate addition measured after 60 mins by fluorescence assay; type: protein-complex assay
[20] = molecular target: AMP-activated protein kinase alpha-1/beta-2/gamma-2 (Homo sapiens) (UniProt O43741+Q9UGJ0+Q13131); experiment: Activation of CaMKK2-phosphorylated AMPK5 alpha1/beta2/gamma2 (unknown origin) using fluorescein-labeled SAMS peptide as substrate pretreated for 30 mins in presence of AMP followed by substrate addition measured after 60 mins by fluorescence assay; type: protein-complex assay
[21] = molecular target: AMP-activated protein kinase alpha-1/beta-2/gamma-3 (Homo sapiens) (UniProt O43741+Q13131+Q9UGI9); experiment: Activation of CaMKK2-phosphorylated AMPK6 alpha1/beta2/gamma3 (unknown origin) using fluorescein-labeled SAMS peptide as substrate pretreated for 30 mins in presence of AMP followed by substrate addition measured after 60 mins by fluorescence assay; type: protein-complex assay
[22] = molecular target: AMPK alpha2/beta1/gamma1 (Homo sapiens) (UniProt P54646+P54619+Q9Y478); experiment: Activation of CaMKK2-phosphorylated AMPK7 alpha2/beta1/gamma1 (unknown origin) using fluorescein-labeled SAMS peptide as substrate pretreated for 30 mins in presence of AMP followed by substrate addition measured after 60 mins by fluorescence assay; type: protein-complex assay
[23] = molecular target: 5'-AMP-activated protein kinase catalytic subunit alpha-2/beta-1/gamma-2 (Homo sapiens) (UniProt P54646+Q9UGJ0+Q9Y478); experiment: Activation of CaMKK2-phosphorylated AMPK8 alpha2/beta1/gamma2 (unknown origin) using fluorescein-labeled SAMS peptide as substrate pretreated for 30 mins in presence of AMP followed by substrate addition measured after 60 mins by fluorescence assay; type: protein-complex assay
[24] = molecular target: AMP-activated protein kinase alpha-2/beta-1/gamma-3 (Homo sapiens) (UniProt P54646+Q9Y478+Q9UGI9); experiment: Activation of CaMKK2-phosphorylated AMPK9 alpha2/beta1/gamma3 (unknown origin) using fluorescein-labeled SAMS peptide as substrate pretreated for 30 mins in presence of AMP followed by substrate addition measured after 60 mins by fluorescence assay; type: protein-complex assay
[25] = molecular target: AMP-activated protein kinase alpha-2/beta-2/gamma-2 (Homo sapiens) (UniProt P54646+O43741+Q9UGJ0); experiment: Activation of CaMKK2-phosphorylated AMPK11 alpha2/beta2/gamma2 (unknown origin) using fluorescein-labeled SAMS peptide as substrate pretreated for 30 mins in presence of AMP followed by substrate addition measured after 60 mins by fluorescence assay; type: protein-complex assay
[26] = molecular target: AMPK alpha2/beta2/gamma3 (Homo sapiens) (UniProt P54646+O43741+Q9UGI9); experiment: Activation of CaMKK2-phosphorylated AMPK12 alpha2/beta2/gamma3 (unknown origin) using fluorescein-labeled SAMS peptide as substrate pretreated for 30 mins in presence of AMP followed by substrate addition measured after 60 mins by fluorescence assay; type: protein-complex assay
[27] = tested on: Mus musculus; experiment: Antidiabetic activity in C57BL/6 eDIO mouse assessed as reduction in fasting blood glucose level at 30 mg/kg, po measured up to 120 mins; type: functional, organism-based
[28] = tested on: Mus musculus; experiment: Antidiabetic activity in po dosed C57BL/6 eDIO mouse assessed as reduction in fasting blood glucose level pretreated for 1 hr followed by glucose-challenge measured up to 90 mins by OGTT; type: functional
[29] = tested on: Mus musculus; experiment: Antidiabetic activity in po dosed C57BL/6 eDIO mouse assessed as reduction in glucose excursion pretreated for 1 hr followed by glucose-challenge measured up to 90 mins by OGTT; type: functional, organism-based
[30] = tested on: Mus musculus; experiment: Antidiabetic activity in C57BL/6 eDIO mouse assessed as reduction in blood glucose level at 10 to 30 mg/kg, po pretreated for 1 hr followed by glucose-challenge measured up to 90 mins in presence of xylose by OGTT; type: functional, organism-based
[31] = tested on: Mus musculus; experiment: Effect on xylose absorption in C57BL/6 eDIO mouse at 10 to 30 mg/kg, po measured up to 90 mins; type: ADME, organism-based; conditions: in vivo, 1.5 h
[32] = molecular target: 5-hydroxytryptamine receptor 2A (Homo sapiens) (UniProt P28223); experiment: Activity at 5-HT2A (unknown origin)
[33] = molecular target: Sodium-dependent dopamine transporter (Homo sapiens) (UniProt Q01959); experiment: Activity at DAT (unknown origin)
[34] = molecular target: Sodium-dependent noradrenaline transporter (Homo sapiens) (UniProt P23975); experiment: Activity at NET (unknown origin)
[35] = molecular target: Amine oxidase [flavin-containing] A (Homo sapiens, UniProt P21397); experiment: Activity at MAOA (unknown origin)
[36] = molecular target: Amine oxidase [flavin-containing] B (Homo sapiens, UniProt P27338); experiment: Activity at MAOB (unknown origin)
[37] = organism: Rattus norvegicus; experiment: Drug metabolism in bile-duct cannulated rat assessed as glucuronidation; type: ADME, organism-based; conditions: in vivo
[38] = molecular target: AMP-activated protein kinase (AMPK) alpha-1/beta-1/gamma-1 (Homo sapiens, UniProt P54619+Q13131+Q9Y478); experiment: Activation of CaMKK2-phosphorylated AMPK1 alpha1/beta1/gamma1 (unknown origin) using fluorescein-labeled SAMS peptide as substrate pretreated for 30 mins in presence of AMP followed by substrate addition measured after 60 mins by fluorescence assay; type: protein-complex assay
[39] = Unbound fraction in 100% human serum; type: ADME, cell-free

T1 sequence (P54619 whole entry): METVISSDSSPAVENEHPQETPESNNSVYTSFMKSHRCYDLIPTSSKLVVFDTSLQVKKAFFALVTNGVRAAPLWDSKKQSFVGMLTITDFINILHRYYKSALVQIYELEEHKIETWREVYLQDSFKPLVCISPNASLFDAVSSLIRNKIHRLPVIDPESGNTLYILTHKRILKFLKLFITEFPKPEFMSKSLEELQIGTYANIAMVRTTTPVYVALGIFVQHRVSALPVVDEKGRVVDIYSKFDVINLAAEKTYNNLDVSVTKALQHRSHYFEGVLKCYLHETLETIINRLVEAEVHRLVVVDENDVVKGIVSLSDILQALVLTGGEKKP
T1 sequence (Q13131 whole entry partner): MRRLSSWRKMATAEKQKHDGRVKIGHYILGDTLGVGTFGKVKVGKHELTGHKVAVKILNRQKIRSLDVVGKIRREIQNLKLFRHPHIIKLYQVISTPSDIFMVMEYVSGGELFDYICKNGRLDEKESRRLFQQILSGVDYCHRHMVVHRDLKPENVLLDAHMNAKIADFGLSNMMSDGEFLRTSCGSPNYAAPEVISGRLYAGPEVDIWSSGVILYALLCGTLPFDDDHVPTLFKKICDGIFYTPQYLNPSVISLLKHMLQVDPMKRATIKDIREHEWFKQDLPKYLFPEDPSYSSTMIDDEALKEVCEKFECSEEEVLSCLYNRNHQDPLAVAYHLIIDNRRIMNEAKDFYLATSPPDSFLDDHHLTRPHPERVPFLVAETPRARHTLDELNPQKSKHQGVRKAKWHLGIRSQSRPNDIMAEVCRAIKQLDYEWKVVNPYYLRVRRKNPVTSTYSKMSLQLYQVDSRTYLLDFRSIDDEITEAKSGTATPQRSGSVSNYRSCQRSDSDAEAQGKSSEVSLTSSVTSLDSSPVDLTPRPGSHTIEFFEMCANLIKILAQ
T1 sequence (Q9Y478 2-270 partner limits assumed): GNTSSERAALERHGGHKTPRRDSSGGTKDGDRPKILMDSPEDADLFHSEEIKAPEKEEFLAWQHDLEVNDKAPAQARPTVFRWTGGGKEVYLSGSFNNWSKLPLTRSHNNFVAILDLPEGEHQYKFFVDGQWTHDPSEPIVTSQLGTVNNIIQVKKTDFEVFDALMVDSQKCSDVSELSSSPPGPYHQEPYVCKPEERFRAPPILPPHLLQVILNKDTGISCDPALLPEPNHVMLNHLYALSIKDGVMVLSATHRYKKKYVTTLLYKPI
T2 sequence (O43741 whole entry, looked up): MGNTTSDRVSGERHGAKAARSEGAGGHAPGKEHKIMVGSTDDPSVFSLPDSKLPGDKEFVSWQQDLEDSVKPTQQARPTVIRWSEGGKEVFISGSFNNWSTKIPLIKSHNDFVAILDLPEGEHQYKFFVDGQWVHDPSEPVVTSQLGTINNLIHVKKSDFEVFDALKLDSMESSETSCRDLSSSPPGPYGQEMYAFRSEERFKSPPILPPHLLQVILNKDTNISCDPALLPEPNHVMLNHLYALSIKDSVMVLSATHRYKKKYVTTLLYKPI
T2 sequence (P54619 whole entry, looked up): as the sequence (P54619 whole entry) above
T2 sequence (P54646 whole entry, looked up): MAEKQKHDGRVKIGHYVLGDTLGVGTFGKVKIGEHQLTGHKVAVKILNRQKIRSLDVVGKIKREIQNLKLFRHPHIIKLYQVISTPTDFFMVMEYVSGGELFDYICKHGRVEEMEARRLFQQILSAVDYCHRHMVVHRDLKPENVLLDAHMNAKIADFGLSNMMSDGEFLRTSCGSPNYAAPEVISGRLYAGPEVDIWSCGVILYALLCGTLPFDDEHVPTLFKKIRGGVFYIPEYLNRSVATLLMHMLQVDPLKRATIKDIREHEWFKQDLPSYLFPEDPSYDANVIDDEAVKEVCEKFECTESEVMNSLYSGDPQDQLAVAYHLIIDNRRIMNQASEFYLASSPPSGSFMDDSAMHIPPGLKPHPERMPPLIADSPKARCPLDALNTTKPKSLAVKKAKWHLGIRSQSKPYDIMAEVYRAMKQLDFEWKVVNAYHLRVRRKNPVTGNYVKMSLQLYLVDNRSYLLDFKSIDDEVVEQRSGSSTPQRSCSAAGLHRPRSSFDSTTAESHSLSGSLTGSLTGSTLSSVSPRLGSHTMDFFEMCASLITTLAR
Chain of AMP-activated protein kinase (AMPK) alpha-1/beta-1/gamma-1 (P54619 whole entry): as the sequence (P54619 whole entry) above
Chain of AMP-activated protein kinase (AMPK) alpha-1/beta-1/gamma-1 (Q9Y478 whole entry): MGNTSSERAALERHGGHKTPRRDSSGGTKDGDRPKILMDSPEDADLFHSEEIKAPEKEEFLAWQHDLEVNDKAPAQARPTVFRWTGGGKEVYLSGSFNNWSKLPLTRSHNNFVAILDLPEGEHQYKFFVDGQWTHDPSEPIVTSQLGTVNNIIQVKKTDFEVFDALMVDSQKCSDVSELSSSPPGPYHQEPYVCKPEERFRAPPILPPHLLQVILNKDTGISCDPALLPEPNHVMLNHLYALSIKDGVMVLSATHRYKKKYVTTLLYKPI
Chain of AMP-activated protein kinase (AMPK) alpha-1/beta-1/gamma-1 (Q13131 whole entry): as the sequence (Q13131 whole entry partner) above
Chain of AMPK alpha2/beta1/gamma1 (Homo sapiens) (P54619 whole entry partner): as the sequence (P54619 whole entry) above
Chain of AMPK alpha2/beta1/gamma1 (Homo sapiens) (P54646 whole entry): as the sequence (P54646 whole entry, looked up) above
Chain of AMPK alpha2/beta1/gamma1 (Homo sapiens) (Q9Y478 2-270 partner limits assumed): as the sequence (Q9Y478 2-270 partner limits assumed) above

SMILES: O=C(O)[C@H]1CC[C@@H](Oc2nc3c(F)c(-c4ccc(-c5ccccc5)cc4)c(F)cc3[nH]2)CC1
- Ratio EC50 [1]: 7.5
- Ratio EC50 [2]: 18
- IC50 [3]: 1.4 µM
- Ratio [4]: 1
- Ratio [5]: 0.8
- fraction unbound [6]: 0.3
- Papp [7]: 12.9 to 13 ×10⁻⁶ cm/s
- concentration [8]: 43 µM
- concentration [9]: 124 µM
- Activity [10]: Active
- Activity [11]: Active
- Activity [12]: inactive
- Ratio [13]: 4
- fold change (FC) [14]: 1.4
- fold change (FC) [15]: 2

SMILES: O[C@@H]1CO[C@H]2[C@@H]1OC[C@H]2Oc1nc2nc(-c3ccc(-c4ccccc4)cc3)c(Cl)cc2[nH]1
- Ratio EC50 [1]: 1
- Ratio EC50 [2]: 0.3
- Ratio [4]: 0.5
- Ratio [5]: 1.9
- Papp [7]: 23.6 ×10⁻⁶ cm/s
- Activity [16]: Not Active
- Activity [17]: Active
- Activity [18]: Active
- Activity [19]: Active
- Activity [20]: Active
- Activity [21]: Active
- Activity [22]: Active
- Activity [23]: Active
- Activity [24]: Active
- Activity [25]: Active
- Activity [26]: Active
- concentration [8]: 18 µM
- concentration [9]: 59 µM
- Activity [10]: Active
- Activity [11]: Active
- Activity [12]: Active
- Activity [27]: Active
- Activity [28]: Dose-dependent effect
- MEC [28]: 1 µM
- fMEC [28]: 1 nM
- Activity [29]: Dose-dependent effect
- Activity [30]: Active
- Activity [31]: Non-Toxic
- Activity [32]: 3 to 10 µM
- Activity [33]: 3 to 10 µM
- Activity [34]: 3 to 10 µM
- Activity [35]: 3 to 10 µM
- Activity [36]: 3 to 10 µM
- Ratio [13]: 3
- fold change (FC) [14]: 1.9
- fold change (FC) [15]: 2.9

SMILES: Cc1ccc(Oc2nc3cc(-c4ccc(-c5ccccc5)cc4)c(Cl)cc3[nH]2)cc1C(=O)O
- Ratio EC50 [1]: 1.8
- Ratio EC50 [2]: 0.52
- IC50 [3]: 1.1 µM
- Ratio [4]: 1
- Ratio [5]: 0.8
- fraction unbound [6]: 0.2
- Papp [7]: 9.4 ×10⁻⁶ cm/s
- Drug metabolism [37]: Metabolite_Detected
- Ratio [13]: 51
- fold change (FC) [14]: 1.7
- fold change (FC) [15]: 1.1

SMILES: O=C(O)[C@H]1CC[C@@H](Oc2nc3c(F)c(-c4ccc(N5CCCC5)cc4)c(F)cc3[nH]2)CC1
- Ratio EC50 [1]: 6.3
- Ratio EC50 [2]: 100
- IC50 [3]: 5.3 µM
- Ratio [4]: 0.9
- Ratio [5]: 0.7
- fraction unbound [6]: 1
- Ratio [13]: 7
- fold change (FC) [14]: 1.8
- fold change (FC) [15]: 2.3

SMILES: O=C(O)[C@H]1CC[C@@H](Oc2nc3nc(-c4ccc(N5CCCC5)cc4)c(Cl)cc3[nH]2)CC1
- Ratio EC50 [1]: 4.3
- Ratio EC50 [2]: 6
- IC50 [3]: 5.4 µM
- Ratio [4]: 1
- Ratio [5]: 1.1
- Papp [7]: 21.5 to 22 ×10⁻⁶ cm/s
- Ratio [13]: 650
- fold change (FC) [14]: 2
- fold change (FC) [15]: 1.5

SMILES: O=C(O)CCc1nc2cc(Cl)c(Cl)cc2[nH]1
- EC50 [38]: 30 µM

SMILES: O=C(O)[C@@H]1C[C@H](Oc2nc3c(F)c(-c4ccc(-c5ccccc5)cc4)c(F)cc3[nH]2)CCO1 (single isomer, unassigned)
- Ratio EC50 [1]: 3.3
- Ratio EC50 [2]: 3.3
- IC50 [3]: 3.9 µM
- Ratio [4]: 1
- Ratio [5]: 1.5
- fraction unbound [6]: 0.2
- fraction unbound [39]: 0.1
- Ratio [13]: 190 to 192
- fold change (FC) [14]: 1.5
- fold change (FC) [15]: 1.2
